In US20230087118A1, “IMIDAZO[1,2-a][sequence] DERIVATIVES AND THEIR USE IN THE TREATMENT OF DISEASE” (priority 2019, published 2023):
Counter-ions that a name gives are not always drawn.

The compounds below were run against T1, IRAK4 (Homo sapiens, UniProt Q9NWZ3) (assay: biochemical). Conditions: not given.
T1 sequence (Q9NWZ3 1-460): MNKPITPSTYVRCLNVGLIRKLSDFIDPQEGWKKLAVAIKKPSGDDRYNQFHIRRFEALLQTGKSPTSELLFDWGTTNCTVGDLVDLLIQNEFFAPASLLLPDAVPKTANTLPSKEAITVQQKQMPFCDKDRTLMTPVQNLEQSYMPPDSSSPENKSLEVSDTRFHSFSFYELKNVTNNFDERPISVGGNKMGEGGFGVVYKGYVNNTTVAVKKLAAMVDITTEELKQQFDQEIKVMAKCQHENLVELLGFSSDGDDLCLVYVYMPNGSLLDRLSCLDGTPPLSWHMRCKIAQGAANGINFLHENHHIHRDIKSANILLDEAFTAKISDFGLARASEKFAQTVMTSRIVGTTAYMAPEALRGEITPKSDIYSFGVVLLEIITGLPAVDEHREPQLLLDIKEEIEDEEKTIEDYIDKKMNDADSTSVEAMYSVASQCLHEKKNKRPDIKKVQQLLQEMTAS
Work on `CC(C)Oc1cc2nc([C@]34CC[C@](C)(C3)OC4)cn2cc1C(=O)Nc1cnn2cccnc12` (single isomer, unassigned) [Example 614] yielded an IC50 of 0.0002 µM. `CC(C)Oc1cc2nc(C34CCC(C)(C3)OC4)cn2cc1C(=O)Nc1nccs1` (centres unmarked) [Example 512, 7-Isopropoxy-2-(1-methyl-2-oxabicyclo[2.2.1]heptan-4-yl)-N-(thiazol-2-yl)imidazo[1,2-a]pyridine-6-carboxamide] was tested, and the IC50 was 0.009 µM. For `CCC(C)Oc1nc2nc(C34COC(CF)(C3)C4)cn2cc1C(=O)Nc1cnn2cc(C)cnc12` (single isomer, unassigned) [Example 645], the IC50 was 0.0005 µM. In the case of `CC(C)Oc1nc2nc([C@@]34CC[C@@](C)(C3)OC4)cn2cc1C(=O)Nc1cnn2cc(F)cnc12` (single isomer, unassigned) [Example 630], the IC50 is reported as 0.0003 µM. Compound `CCOc1cc2nc([C@@H]3C[C@@H]3F)cn2cc1C(=O)Nc1cccc(OC)n1` [Example 80] has an IC50 of 0.029 µM. For `Cc1ccn2ncc(NC(=O)c3cn4cc(C56COC(C)(C5)C6)nc4cc3OC(C)C)c2n1` [Example 263, 7-Isopropoxy-2-(1-methyl-2-oxabicyclo[2.1.1]hexan-4-yl)-N-(5-methylpyrazolo[1,5-a]pyrimidin-3-yl)imidazo[1,2-a]pyridine-6-carboxamide], the IC50 was 0.0002 µM. Compound `CCOc1nc(C(=O)Nc2cccnc2OC)cn2cc([C@@]34CC[C@@](C)(C3)OC4)nc12` (single isomer, unassigned) [Example 605] has an IC50 of 0.0004 µM. Work on `CC(C)Oc1nc2nc([C@]34CC[C@](C)(C3)OC4)cn2cc1C(=O)Nc1cccn(C(F)F)c1=O` (single isomer, unassigned) [Example 629] yielded an IC50 of 0.0003 µM. `CC(C)Oc1nc2nc(C34COC(C)(C3)C4)cn2cc1C(=O)Nc1cccc2ccnn12` [Example 385, 7-Isopropoxy-2-(1-methyl-2-oxabicyclo[2.1.1]hexan-4-yl)-N-(pyrazolo[1,5-a]pyridin-7-yl)imidazo[1,2-a]pyrimidine-6-carboxamide] gave an IC50 of 0.0004 µM. `CCOc1nc(C(=O)Nc2cccnc2OC)cn2cc(C3CCOC3)nc12` (centres unmarked) [Example 273, 8-Ethoxy-N-(2-methoxypyridin-3-yl)-2-(tetrahydrofuran-3-yl)imidazo[1,2-a]pyrazine-6-carboxamide] showed an IC50 of 0.0047 µM. With `CC(C)Oc1cc2nc(C(F)F)cn2cc1C(=O)Nc1cccc(C(F)F)n1` [Example 99] the IC50 was 0.0073 µM. `COc1cnccc1NC(=O)c1cn2cc(C3CCOCC3)nc2cc1OC` [Example 195] gave an IC50 of 0.123 µM. For `CC(C)Oc1nc(C(=O)Nc2ccn(C)n2)cn2cc([C@@]34CC[C@@](C)(C3)OC4)nc12` (single isomer, unassigned) [Example 592], the IC50 was 0.0034 µM. In the case of `CC(C)Oc1nc2nc(C3C4COCC43)cn2cc1C(=O)Nc1ccn(C(F)F)n1` (centres unmarked) [Example 395, 2-(3-Oxabicyclo[3.1.0]hexan-6-yl)-N-(1-(difluoromethyl)-1H-pyrazol-3-yl)-7-isopropoxyimidazo[1,2-a]pyrimidine-6-carboxamide], the IC50 is reported as 0.0057 µM. Work on `CC(C)Oc1nc2nc(C34COC(C)(C3)C4)cn2cc1C(=O)Nc1cccc2ncnn12` [Example 410, N-([1,2,4]triazolo[1,5-a]pyridin-5-yl)-7-isopropoxy-2-(1-methyl-2-oxabicyclo[2.1.1]hexan-4-yl)imidazo[1,2-a]pyrimidine-6-carboxamide] yielded an IC50 of 0.0002 µM. `Cc1cnc2c(NC(=O)c3cn4cc([C@@]56CC[C@@](C)(C5)OC6)nc4nc3OC(C)C)cnn2c1` (single isomer, unassigned) [Example 616] showed an IC50 of 0.0002 µM. In the case of `CCC(C)Oc1nc2nc(C34COC(C)(C3)C4)cn2cc1C(=O)Nc1cnn2cc(C)cnc12` (single isomer, unassigned) [Example 643], the IC50 is reported as 0.0004 µM. For `Cn1ccc(NC(=O)c2cn3cc(C45COC(C)(C4)C5)nc3cc2OC2CCCC2)n1` [Example 449, 7-(Cyclopentyloxy)-N-(1-methyl-1H-pyrazol-3-yl)-2-(1-methyl-2-oxabicyclo[2.1.1]hexan-4-yl)imidazo[1,2-a]pyridine-6-carboxamide], the IC50 was 0.0015 µM. `COc1ncccc1NC(=O)c1cn2cc(C34COC(C)(C3)C4)nc2cc1OC1CCC1` [Example 526, 7-Cyclobutoxy-N-(2-methoxypyridin-3-yl)-2-(1-methyl-2-oxa-bicyclo[2.1.1]hexan-4-yl)imidazo[1,2-a]pyridine-6-carboxamide] showed an IC50 of 0.0003 µM. Work on `COc1cc2nc(C3CCOCC3)cn2cc1C(=O)Nc1cccc(Cl)c1F` [Example 114] yielded an IC50 of 0.0153 µM. Work on `CC(C)Oc1cc2nc(C34COC(C)(C3)C4)cn2cc1C(=O)Nc1cccc2cn(C)nc12` [Example 318, 7-Isopropoxy-N-(2-methyl-2H-indazol-7-yl)-2-(1-methyl-2-oxabicyclo[2.1.1]hexan-4-yl)imidazo[1,2-a]pyridine-6-carboxamide] yielded an IC50 of 0.001 µM. In the case of `CCOc1nc(C(=O)Nc2ccc(F)cc2OC)cn2cc(C34COC(C)(C3)C4)nc12` [Example 491, 8-Ethoxy-N-(4-fluoro-2-methoxyphenyl)-2-(1-methyl-2-oxabicyclo[2.1.1]hexan-4-yl)imidazo[1,2-a]pyrazine-6-carboxamide], the IC50 is reported as 0.0023 µM. Compound `COc1cc2nc(C3CCOCC3)cn2cc1C(=O)Nc1ncnc2cccnc12` [Example 204, 7-Methoxy-N-(pyrido[3,2-d]pyrimidin-4-yl)-2-(tetrahydro-2H-pyran-4-yl)imidazo[1,2-a]pyridine-6-carboxamide] has an IC50 of 0.429 µM. `CC(C)Oc1cc2nc(C34COC(C)(C3)C4)cn2cc1C(=O)Nc1ccn(CC#N)n1` [Example 313, N-(1-(cyanomethyl)-1H-pyrazol-3-yl)-7-isopropoxy-2-(1-methyl-2-oxabicyclo[2.1.1]hexan-4-yl)imidazo[1,2-a]pyridine-6-carboxamide] gave an IC50 of 0.0036 µM. `Cn1ccc(NC(=O)c2cn3cc([C@@]45CC[C@@](C)(C4)OC5)nc3nc2OC2CCCC2)n1` (single isomer, unassigned) [Example 635] gave an IC50 of 0.0026 µM. `CC(C)Oc1nc(C(=O)Nc2ccn(C)n2)cn2cc(C34CCC(C)(C3)OC4)nc12` (centres unmarked) [Example 240] gave an IC50 of 0.0023 µM. In the case of `CC(C)Oc1nc2nc(C34COC(C)(C3)C4)cn2cc1C(=O)Nc1cccnc1OC(F)F` [Example 389, N-(2-(difluoromethoxy)pyridin-3-yl)-7-isopropoxy-2-(1-methyl-2-oxabicyclo[2.1.1]hexan-4-yl)imidazo[1,2-a]pyrimidine-6-carboxamide], the IC50 is reported as 0.0032 µM. Work on `CC(C)Oc1nc2nc(C34COC(C)(C3)C4)cn2cc1C(=O)Nc1cc(F)n(C)n1` [Example 360, N-(5-fluoro-1-methyl-1H-pyrazol-3-yl)-7-isopropoxy-2-(1-methyl-2-oxabicyclo[2.1.1]hexan-4-yl)imidazo[1,2-a]pyrimidine-6-carboxamide] yielded an IC50 of 0.0111 µM. `CCOc1nc(C(=O)Nc2cc(F)cnc2OC)cn2cc([C@@H]3CCCOC3)nc12` (single isomer, unassigned) [Example 594] showed an IC50 of 0.0056 µM. `CC(C)COc1cc2nc(C34COC(C)(C3)C4)cn2cc1C(=O)Nc1cccn(C(F)F)c1=O` [Example 453, N-(1-(difluoromethyl)-2-oxo-1,2-dihydropyridin-3-yl)-7-isobutoxy-2-(1-methyl-2-oxabicyclo[2.1.1]hexan-4-yl)imidazo[1,2-a]pyridine-6-carboxamide] was tested, and the IC50 was 0.0007 µM. In the case of `CC(C)Oc1nc2nc(C34COC(C)(C3)C4)cn2cc1C(=O)Nc1cnn2cc(C3CC3)cnc12` [Example 375, N-(6-cyclopropylpyrazolo[1,5-a]pyrimidin-3-yl)-7-isopropoxy-2-(1-methyl-2-oxabicyclo[2.1.1]hexan-4-yl)imidazo[1,2-a]pyrimidine-6-carboxamide], the IC50 is reported as 0.0067 µM. Work on `COc1nc(C(=O)Nc2cccc(C(F)(F)F)n2)cn2cc(C34CCOC(C)(C3)C4)nc12` [Example 238] yielded an IC50 of 0.0064 µM. In the case of `CC(Oc1cc2nc(C34COC(C)(C3)C4)cn2cc1C(=O)Nc1cccc(C(F)F)n1)C(F)(F)F` (single isomer, unassigned) [Example 619], the IC50 is reported as 0.0001 µM.

Same assay, conditions: IRAK4 Biochemical Assay (1 mM ATP, 2 h) IC50 (μM), 1 mM ATP, 2 h, 100 pM IRAK4
Compound `CC(C)Oc1cc2nc(C34COC(C)(C3)C4)cn2cc1C(=O)Nc1nccc(C(F)F)n1` [Example 295, N-(4-(difluoromethyl)pyrimidin-2-yl)-7-isopropoxy-2-(1-methyl-2-oxabicyclo[2.1.1]hexan-4-yl)imidazo[1,2-a]pyridine-6-carboxamide trifluoroacetate] has an IC50 of 0.0097 µM. Compound `CC(C)Oc1cc2nc(C34CCC(C)(C3)OC4)cn2cc1C(=O)Nc1cc(F)n(C)n1` (centres unmarked) [Example 284, N-(5-fluoro-1-methyl-1H-pyrazol-3-yl)-7-isopropoxy-2-(1-methyl-2-oxabicyclo[2.2.1]heptan-4-yl)imidazo[1,2-a]pyridine-6-carboxamide trifluoroacetate] has an IC50 of 0.0056 µM. Work on `CC(C)(C)c1cn2cc(C(=O)Nc3cnn4cccnc34)c(OC3CCC3)cc2n1` [Example 266, 2-(tert-Butyl)-7-cyclobutoxy-N-(pyrazolo[1,5-a]pyrimidin-3-yl)imidazo[1,2-a]pyridine-6-carboxamide trifluoroacetate] yielded an IC50 of 0.0013 µM. `CC(C)Oc1nc2nc(C34COC(C)(C3)C4)cn2cc1C(=O)Nc1cnn2ccc(C(F)F)nc12` [Example 309, N-(5-(difluoromethyl)pyrazolo[1,5-a]pyrimidin-3-yl)-7-isopropoxy-2-(1-methyl-2 oxabicyclo[2.1.1]hexan-4-yl)imidazo[1,2-a]pyrimidine-6-carboxamide trifluoroacetate] was tested, and the IC50 was 0.0299 µM. With `CC(C)Oc1nc2nc(C34COC(C)(C3)C4)cn2cc1C(=O)Nc1csc2nccnc12` [Example 380, 7-Isopropoxy-2-(1-methyl-2-oxabicyclo[2.1.1]hexan-4-yl)-N-(thieno[2,3-b]pyrazin-7-yl)imidazo[1,2-a]pyrimidine-6-carboxamide trifluoroacetate] the IC50 was 0.0002 µM.
